Literature values in US20040086873A1, “System and method of generating and storing correlated hyperquantified tissue structure and biomolecular expression datasets” (priority 2002, published 2004).

Conditions: 1000 mg/kg/day, intraperitoneal injection once a day, dissolved in corn oil (~15% v/v)

ClC(Cl)(Cl)Cl [CC14]
toxicity of the dose level (hepatotoxic / lethal): hepatotoxic but not lethal
